Reference: US11034699B2, “Ethynyl derivatives” (Hoffmann-La Roche Inc., priority 2015, dated 2021)

Key:
[1] = test system: mice; conditions: mice treated with MPTP; cited from earlier work
[2] = test system: rats; conditions: cited from earlier work
[3] = test system: mice; conditions: cited from earlier work
[4] = test system: mice; conditions: cited from earlier work; remark: listed apart in the source
[5] = target: human mGlu4 receptor (Homo sapiens (Human), UniProt Q14833); assay: Ca2+ mobilization in vitro assay on recombinant human mGlu4 expressed in HEK293 cells (PAM); type: cell-based; conditions: for Emax: HEK293, maximal response in % of maximal stimulatory effect of saturating L-AP4, read-out: Eff. (%); for EC50: HEK293 cells, human mGlu4, L-AP4 at EC20
human mGlu4 receptor, sequence (Q14833 33-912): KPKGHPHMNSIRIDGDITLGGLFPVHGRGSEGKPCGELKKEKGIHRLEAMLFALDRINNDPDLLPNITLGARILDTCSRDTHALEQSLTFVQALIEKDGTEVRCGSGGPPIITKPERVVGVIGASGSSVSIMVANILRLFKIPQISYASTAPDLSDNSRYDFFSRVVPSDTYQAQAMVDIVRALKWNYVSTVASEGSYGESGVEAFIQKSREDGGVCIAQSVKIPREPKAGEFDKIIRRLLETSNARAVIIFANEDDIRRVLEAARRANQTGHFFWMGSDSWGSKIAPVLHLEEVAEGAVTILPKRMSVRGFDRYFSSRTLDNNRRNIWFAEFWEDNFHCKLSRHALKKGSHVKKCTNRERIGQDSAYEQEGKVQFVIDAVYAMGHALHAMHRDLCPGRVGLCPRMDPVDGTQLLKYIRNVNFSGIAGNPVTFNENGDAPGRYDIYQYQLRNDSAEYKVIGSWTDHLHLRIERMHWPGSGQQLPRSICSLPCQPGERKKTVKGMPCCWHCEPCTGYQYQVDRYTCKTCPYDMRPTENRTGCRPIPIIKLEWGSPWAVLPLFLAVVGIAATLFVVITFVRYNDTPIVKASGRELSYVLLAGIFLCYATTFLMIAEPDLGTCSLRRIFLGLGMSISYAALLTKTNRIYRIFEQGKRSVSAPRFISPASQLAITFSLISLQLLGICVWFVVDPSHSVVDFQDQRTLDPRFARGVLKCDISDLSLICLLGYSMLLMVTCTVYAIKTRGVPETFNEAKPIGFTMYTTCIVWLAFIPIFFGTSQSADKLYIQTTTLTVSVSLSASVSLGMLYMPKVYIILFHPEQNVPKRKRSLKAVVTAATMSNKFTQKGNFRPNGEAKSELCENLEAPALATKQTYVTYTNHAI
Procedure: Determination of EC50 Values Using a Ca2+ Mobilization In Vitro Assay on Recombinant Human mGlu4 Expressed in HEK293 Cells:
A monoclonal HEK-293 cell line stably transfected with a cDNA encoding for the human mGlu4 receptor was generated; for the work with mGlu4 Positive Allosteric Modulators (PAMs), a cell line with low receptor expression levels and low constitutive receptor activity was selected to allow the differentiation of agonistic versus PAM activity. Cells were cultured according to standard protocols (Freshney, 2000) in Dulbecco's Modified Eagle Medium with high glucose supplemented with 1 mM glutamine, 10% (vol/vol) heat-inactivated bovine calf serum, Penicillin/Streptomycin, 50 μg/ml hygromycin and 15 μg/ml blasticidin (all cell culture reagents and antibiotics from Invitrogen, Basel, Switzerland).
About 24 hrs before an experiment, 5×10^4 cells/well were seeded in poly-D-lysine coated, black/clear-bottomed 96-well plates. The cells were loaded with 2.5 μM Fluo-4AM in loading buffer (1×HBSS, 20 mM HEPES) for 1 hr at 37° C. and washed five times with loading buffer. The cells were transferred into a Functional Drug Screening System 7000 (Hamamatsu, Paris, France), and 11 half logarithmic serial dilutions of test compound at 37° C. were added and the cells were incubated for 10-30 min. with on-line recording of fluorescence. Following this pre-incubation step, the agonist (2S)-2-amino-4-phosphonobutanoic acid (L-AP4) was added to the cells at a concentration corresponding to EC20 with on-line recording of fluorescence; in order to account for day-to-day variations in the responsiveness of cells, the EC20 of L-AP4 was determined immediately ahead of each experiment by recording of a full dose-response curve of L-AP4.
Responses were measured as peak increase in fluorescence minus basal (i.e. fluorescence without addition of L-AP4), normalized to the maximal stimulatory effect obtained with saturating concentrations of L-AP4. Graphs were plotted with the % maximal stimulatory using XLfit, a curve fitting program that iteratively plots the data using Levenburg Marquardt algorithm. The single site competition analysis equation used was y=A+((B−A)/(1+((x/C)D))), where y is the % maximal stimulatory effect, A is the minimum y, B is the maximum y, C is the EC50, x is the log 10 of the concentration of the competing compound and D is the slope of the curve (the Hill Coefficient). From these curves the EC50 (drug concentration at which 50% of the maximal receptor activation was achieved), the Hill coefficient as well as the maximal response in % of the maximal stimulatory effect obtained with saturating concentrations of L-AP4 were calculated (see FIG. 1).
A depression of the signal observed after addition of the EC20 concentration of L-AP4 was indicative of an inhibitory activity of the test compound.

[6] = test system: rodent; conditions: 6-OHDA rodent model of PD; cited from earlier work

| SMILES | Emax [5] [%] | EC50 [5] [nM] | further results |
| --- | --- | --- | --- |
| O=C(Nc1ccccc1)C12CC1/C(=N\O)c1ccccc1O2 (single isomer, unassigned; (-)) [(−)-PHCCC] |  |  | nigrostriatal degeneration [1]: reduced nigrostriatal degeneration |
| Cc1ccnc(Nc2nc(-c3cn[nH]c3)c(C)s2)n1 [ADX88178] |  |  | profile in the rat EPM test ([2]; rat, after oral dosing): anxiolytic-like profile; activity in EPM ([2]; rats): active; activity in marble burying test [3]: active; activity in EPM [4]: active |
| CN1C(=O)N(c2c(F)cc(C#Cc3ccccc3)cc2F)C(=O)C[C@]12CCCc1ccncc12 [Example 1, (8S)-3′-[2,6-Difluoro-4-(2-phenylethynyl)phenyl]-1′-methyl-spiro[6,7-dihydro-5H-isoquinoline-8,6′-hexahydropyrimidine]-2′,4′-dione] | 101 | 58 |  |
| CN1C(=O)N(c2c(F)cc(C#Cc3cccnc3)cc2F)C(=O)C[C@]12CCCc1ccccc12 [Example 2, (6S)-3-[2,6-Difluoro-4-[2-(3-pyridyl)ethynyl]phenyl]-1-methyl-spiro[hexahydropyrimidine-6,1′-tetralin]-2,4-dione] | 101 | 52 |  |
| CN1C(=O)N(c2c(F)cc(C#Cc3cccnc3)cc2F)C(=O)C[C@]12CCc1ccccc12 [Example 3, (6S)-3-[2,6-Difluoro-4-[2-(3-pyridyl)ethynyl]phenyl]-1-methyl-spiro[hexahydropyrimidine-6,1′-indane]-2,4-dione] | 94 | 61 |  |
| CN1C(=O)N(c2c(F)cc(C#Cc3ccccc3)cc2F)C(=O)C[C@]12CCc1ncccc12 [Example 4, (5S)-3′-[2,6-Difluoro-4-(2-phenylethynyl)phenyl]-1′-methyl-spiro[6,7-dihydrocyclopenta[b]pyridine-5,6′-hexahydropyrimidine]-2′,4′-dione] | 115 | 94 |  |
| CN1C(=O)N(c2c(F)cc(C#Cc3ccccc3)cc2F)C(=O)C[C@]12CCCc1ncccc12 [Example 5, (5S)-3′-[2,6-Difluoro-4-(2-phenylethynyl)phenyl]-1′-methyl-spiro[7,8-dihydro-6H-quinoline-5,6′-hexahydropyrimidine]-2′,4′-dione] | 121 | 76 |  |
| CN1C(=O)N(c2c(F)cc(C#Cc3ccccc3)cc2F)C(=O)C[C@]12CCCc1cnccc12 [Example 6, (5S)-3′-[2,6-Difluoro-4-(2-phenylethynyl)phenyl]-1′-methyl-spiro[7,8-dihydro-6H-isoquinoline-5,6′-hexahydropyrimidine]-2′,4′-dione] | 115 | 65 |  |
| CN1C(=O)N(c2c(F)cc(C#Cc3ccccc3)cc2F)C(=O)C[C@]12CCCc1ncncc12 [Example 7, (5S)-3′-[2,6-Difluoro-4-(2-phenylethynyl)phenyl]-1′-methyl-spiro[7,8-dihydro-6H-quinazoline-5,6′-hexahydropyrimidine]-2′,4′-dione] | 115 | 65 |  |
| CN1C(=O)N(c2c(F)cc(C#Cc3cccnc3)cc2F)C(=O)C[C@]12CCOc1ccccc12 [Example 8, (4S)-3′-[2,6-Difluoro-4-[2-(3-pyridyl)ethynyl]phenyl]-1′-methyl-spiro[chromane-4,6′-hexahydropyrimidine]-2′,4′-dione] | 145 | 88 |  |
| CN1C(=O)N(c2c(F)cc(C#Cc3ccccc3)cc2F)C(=O)C[C@]12CCOc1ncccc12 [Example 9, (4S)-3′-[2,6-Difluoro-4-(2-phenylethynyl)phenyl]-1′-methyl-spiro[2,3-dihydropyrano[2,3-b]pyridine-4,6′-hexahydropyrimidine]-2′,4′-dione] | 124 | 51 |  |
| CN1C(=O)N(c2c(F)cc(C#Cc3cccnc3)cc2F)C(=O)C[C@]12COCc1ccccc12 [Example 10, (6S)-3-[2,6-Difluoro-4-[2-(3-pyridyl)ethynyl]phenyl]-1-methyl-spiro[hexahydropyrimidine-6,4′-isochromane]-2,4-dione] | 118 | 43 |  |
| CCN1C(=O)N(c2c(F)cc(C#Cc3ccccc3)cc2F)C(=O)C[C@]12CCCc1ccncc12 [Example 11, (8S)-3′-[2,6-Difluoro-4-(2-phenylethynyl)phenyl]-1′-ethyl-spiro[6,7-dihydro-5H-isoquinoline-8,6′-hexahydropyrimidine]-2′,4′-dione] | 130 | 114 |  |
| CN1C(=O)N(c2c(F)cc(C#Cc3ccccc3)cc2F)C(=O)C[C@]12CCCc1[nH]ncc12 [Example 12, (4S)-3′-[2,6-Difluoro-4-(2-phenylethynyl)phenyl]-1′-methyl-spiro[1,5,6,7-tetrahydroindazole-4,6′-hexahydropyrimidine]-2′,4′-dione] | 152 | 51 |  |
| CN1C(=O)N(c2c(F)cc(C#Cc3ccccc3)cc2F)C(=O)C[C@]12CCCc1nn(C)cc12 [Example 13, (4S)-3′-[2,6-Difluoro-4-(2-phenylethynyl)phenyl]-1′,2-dimethyl-spiro[6,7-dihydro-5H-indazole-4,6′-hexahydropyrimidine]-2′,4′-dione] | 165 | 39 |  |
| CN1C(=O)N(c2c(F)cc(C#Cc3ccccc3)cc2F)C(=O)C[C@]12CCCc1c2cnn1C [Example 14, (4S)-3′-[2,6-Difluoro-4-(2-phenylethynyl)phenyl]-1,1′-dimethyl-spiro[6,7-dihydro-5H-indazole-4,6′-hexahydropyrimidine]-2′,4′-dione] | 151 | 75 |  |
| CN1C(=O)N(c2c(F)cc(C#Cc3ccccc3)cc2F)C(=O)C[C@]12CCCCc1[nH]ncc12 [Example 15, (4S)-3′-[2,6-Difluoro-4-(2-phenylethynyl)phenyl]-1′-methyl-spiro[5,6,7,8-tetrahydro-1H-cyclohepta[c]pyrazole-4,6′-hexahydropyrimidine]-2′,4′-dione] | 133 | 54 |  |
| CN1C(=O)N(c2c(F)cc(C#Cc3ccccc3)cc2F)C(=O)C[C@]12CCCCc1c2cnn1C [Example 16, (4S)-3′-[2,6-Difluoro-4-(2-phenylethynyl)phenyl]-1,1′-dimethyl-spiro[5,6,7,8-tetrahydrocyclohepta[c]pyrazole-4,6′-hexahydropyrimidine]-2′,4′-dione] | 137 | 34 |  |
| CN1C(=O)N(c2c(F)cc(C#Cc3ccccc3)cc2F)C(=O)C[C@]12CCCCc1nn(C)cc12 [Example 17, (4S)-3′-[2,6-Difluoro-4-(2-phenylethynyl)phenyl]-1′,2-dimethyl-spiro[5,6,7,8-tetrahydrocyclohepta[c]pyrazole-4,6′-hexahydropyrimidine]-2′,4′-dione] | 131 | 39 |  |
| N[C@@H](CCP(=O)(O)O)C(=O)O [L-AP4, (2S)-2-amino-4-phosphonobutanoic acid] |  |  | neuroprotective effects [6]: neuroprotective effects |
